{"source": "patent US7531554B2", "about": "“4-oxoquinoline compound and use thereof as HIV integrase inhibitor” (Japan Tobacco Inc., priority 2004, dated 2009)", "note": "Where a name gives a salt, the structure may show the parent alone.", "data": [{"biological_target": "T1, HIV integrase (Human immunodeficiency virus type 1 group M subtype B, UniProt P12497, F1332H)", "T1 construct": "HIV integrase full length gene (J. Virol., 67, 425-437 (1993)) in which phenylalanine at codon 185 was substituted by histidine; made in house; host or cells: Escherichia coli BL21(DE3)", "assay": "Determination of enzyme (HIV integrase) inhibitory activity", "type": "biochemical", "settings": "recombinant integrase protein (F185H), donor DNA/target DNA, absorbance at 450 nm", "outline": "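Full-length HIV integrase bearing F185H mutation, E. coli-expressed and purified, preincubated with compound on plate-bound biotinylated donor DNA for 60 min at 37 °C; digoxigenin-labelled target DNA then added for 10 min. Strand transfer detected by peroxidase anti-digoxigenin ELISA at 450 nm; IC50 from inhibition versus no-compound and no-enzyme controls.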", "units": {"IC50": "nM"}, "values": [{"smiles": "CC(C)[C@@H](CO)n1cc(C(=O)O)c(=O)c2cc(Cc3cccc(Cl)c3F)c(OCCCN)cc21", "note": "[Example 4-19, 7-(3-aminopropoxy)-6-(3-chloro-2-fluorobenzyl)-1-((1S)-1-(hydroxymethyl)-2-methylpropyl)-4-oxo-1,4-dihydroquinoline-3-carboxylic acid hydrochloride]", "IC50": 4.6}, {"smiles": "CS(=O)(=O)C[C@@H](CO)n1cc(C(=O)O)c(=O)c2cc(Cc3cccc(Cl)c3F)ccc21", "note": "[Example 2-8, 6-(3-chloro-2-fluorobenzyl)-1-((1R)-1-(hydroxymethyl)-2-mesylethyl)-4-oxo-1,4-dihydroquinoline-3-carboxylic acid]", "IC50": 20}, {"smiles": "CC(C)[C@@H](CO)n1cc(C(=O)O)c(=O)c2cc(Cc3cccc(Cl)c3F)c(OC3CCNCC3)cc21", "note": "[Example 4-25, 6-(3-chloro-2-fluorobenzyl)-1-((1S)-1-(hydroxymethyl)-2-methylpropyl)-4-oxo-7-(piperidin-4-yloxy)-1,4-dihydroquinoline-3-carboxylic acid]", "IC50": 4.1}, {"smiles": "CC(C)[C@@H](CO)n1cc(C(=O)O)c(=O)c2cc(Cc3cccc(Cl)c3F)cc(OCCCO)c21", "note": "[Example 3-2, 6-(3-chloro-2-fluorobenzyl)-1-((1S)-1-(hydroxymethyl)-2-methylpropyl)-8-(3-hydroxypropoxy)-4-oxo-1,4-dihydroquinoline-3-carboxylic acid]", "IC50": 4.7}, {"smiles": "CC(C)[C@@H](CO)n1cc(C(=O)O)c(=O)c2cc(Cc3cccc(Cl)c3F)c(N3CC[C@H](O)C3)cc21", "note": "[Example 4-24, 6-(3-chloro-2-fluorobenzyl)-1-((1S)-1-(hydroxymethyl)-2-methylpropyl)-7-((3S)-3-hydroxypyrrolidin-1-yl)-4-oxo-1,4-dihydroquinoline-3-carboxylic acid]", "IC50": 12}, {"smiles": "CC(C)[C@@H](CO)n1cc(C(=O)O)c(=O)c2cc(Cc3cccc(Cl)c3F)c(OCc3ccc(C(=O)O)cc3)cc21", "note": "[Example 4-57, 7-(4-carboxybenzyloxy)-6-(3-chloro-2-fluorobenzyl)-1-((1S)-1-(hydroxymethyl)-2-methylpropyl)-4-oxo-1,4-dihydroquinoline-3-carboxylic acid]", "IC50": 3.8}, {"smiles": "CC(C)[C@@H](CO)n1cc(C(=O)O)c(=O)c2cc(Cc3cccc(Cl)c3F)c(N3CCC(O)CC3)cc21", "note": "[Example 4-21, 6-(3-chloro-2-fluorobenzyl)-1-((1S)-1-(hydroxymethyl)-2-methylpropyl)-7-(4-hydroxypiperidin-1-yl)-4-oxo-1,4-dihydroquinoline-3-carboxylic acid]", "IC50": 6.6}, {"smiles": "CCN1CCN(c2cc3c(cc2Cc2cccc(Cl)c2F)c(=O)c(C(=O)O)cn3[C@H](CO)C(C)C)CC1", "note": "[Example 4-15, 6-(3-chloro-2-fluorobenzyl)-7-(4-ethylpiperazin-1-yl)-1-((1S)-1-(hydroxymethyl)-2-methylpropyl)-4-oxo-1,4-dihydroquinoline-3-carboxylic acid]", "IC50": 11}, {"smiles": "CC(C)[C@@H](CO)n1cc(C(=O)O)c(=O)c2cc(Cc3cccc(Cl)c3F)c(N3CC[C@H](N)C3)cc21", "note": "[Example 4-38, 7-((3S)-3-aminopyrrolidin-1-yl)-6-(3-chloro-2-fluorobenzyl)-1-((1S)-1-(hydroxymethyl)-2-methylpropyl)-4-oxo-1,4-dihydroquinoline-3-carboxylic acid]", "IC50": 12}, {"smiles": "CC(C)[C@@H](CO)n1cc(C(=O)O)c(=O)c2cc(Cc3cccc(Cl)c3F)c(N3CC[C@@H](O)C3)cc21", "note": "[Example 4-23, 6-(3-chloro-2-fluorobenzyl)-1-((1S)-1-(hydroxymethyl)-2-methylpropyl)-7-((3R)-3-hydroxypyrrolidin-1-yl)-4-oxo-1,4-dihydroquinoline-3-carboxylic acid]", "IC50": 27}, {"smiles": "CC(C)[C@@H](CO)n1cc(C(=O)O)c(=O)c2cc(Cc3cccc(Cl)c3F)cc(OCc3ccccc3)c21", "note": "[Example 3-9, 8-benzyloxy-6-(3-chloro-2-fluorobenzyl)-1-((1S)-1-(hydroxymethyl)-2-methylpropyl)-4-oxo-1,4-dihydroquinoline-3-carboxylic acid]", "IC50": 5}, {"smiles": "CC(C)[C@@H](CO)n1cc(C(=O)O)c(=O)c2cc(Cc3cccc(Cl)c3F)c3c(c21)OCCO3", "note": "[Example 6-1, 10-(3-chloro-2-fluorobenzyl)-5-((1S)-1-hydroxymethyl-2-methylpropyl)-8-oxo-2,3,5,8-tetrahydro-1,4-dioxa-5-aza-phenanthrene-7-carboxylic acid]", "IC50": 5.9}, {"smiles": "CC(C)[C@@H](CO)n1cc(C(=O)O)c(=O)c2cc(Cc3cccc(Cl)c3F)c(OCCCN(C)C)cc21", "note": "[Example 4-6, 6-(3-chloro-2-fluorobenzyl)-7-(3-(dimethylamino)propoxy)-1-((1S)-1-(hydroxymethyl)-2-methylpropyl)-4-oxo-1,4-dihydroquinoline-3-carboxylic acid]", "IC50": 6.3}, {"smiles": "CC(C)[C@@H](CO)n1cc(C(=O)O)c(=O)c2cc(Cc3cccc(Cl)c3F)c(OCc3ccc(S(N)(=O)=O)cc3)cc21", "note": "[Example 4-63, 7-(4-(aminosulfonyl)benzyloxy)-6-(3-chloro-2-fluorobenzyl)-1-((1S)-1-(hydroxymethyl)-2-methylpropyl)-4-oxo-1,4-dihydroquinoline-3-carboxylic acid]", "IC50": 3.6}, {"smiles": "CC(C)[C@@H](CO)n1cc(C(=O)O)c(=O)c2cc(Cc3cccc(Cl)c3F)c(O[C@H]3CCNC3)cc21", "note": "[Example 4-46, 6-(3-chloro-2-fluorobenzyl)-1-((1S)-1-(hydroxymethyl)-2-methylpropyl)-4-oxo-7-((3S)-pyrrolidin-3-yloxy)-1,4-dihydroquinoline-3-carboxylic acid hydrochloride]", "IC50": 6.8}, {"smiles": "CC(=O)N1CCN(c2cc3c(cc2Cc2cccc(Cl)c2F)c(=O)c(C(=O)O)cn3[C@H](CO)C(C)C)CC1", "note": "[Example 4-11, 7-(4-acetylpiperazin-1-yl)-6-(3-chloro-2-fluorobenzyl)-1-((1S)-1-(hydroxymethyl)-2-methylpropyl)-4-oxo-1,4-dihydroquinoline-3-carboxylic acid]", "IC50": 6.8}, {"smiles": "CC(C)[C@@H](CO)n1cc(C(=O)O)c(=O)c2cc(Cc3cccc(Cl)c3F)c(OCCO)cc21", "note": "[Example 7-3, 6-(3-chloro-2-fluorobenzyl)-7-(2-hydroxyethoxy)-1-((1S)-1-(hydroxymethyl)-2-methylpropyl)-4-oxo-1,4-dihydroquinoline-3-carboxylic acid]", "IC50": 3.5}, {"smiles": "CC(C)[C@@H](CO)n1cc(C(=O)O)c(=O)c2cc(Cc3cccc(Cl)c3F)c(OCCCO)cc21", "note": "[Example 7-4, 6-(3-chloro-2-fluorobenzyl)-1-((1S)-1-(hydroxymethyl)-2-methylpropyl)-7-(3-hydroxypropoxy)-4-oxo-1,4-dihydroquinoline-3-carboxylic acid]", "IC50": 3.6}, {"smiles": "CC(C)[C@@H](CO)n1cc(C(=O)O)c(=O)c2cc(Cc3cccc(Cl)c3F)c(OCCN3CCCC3)cc21", "note": "[Example 4-17, 6-(3-chloro-2-fluorobenzyl)-1-((1S)-1-(hydroxymethyl)-2-methylpropyl)-4-oxo-7-(2-(pyrrolidin-1-yl)ethoxy)-1,4-dihydroquinoline-3-carboxylic acid]", "IC50": 11}, {"smiles": "COC[C@@H](CO)n1cc(C(=O)O)c(=O)c2cc(Cc3cccc(Cl)c3F)ccc21", "note": "[Example 2-14, 6-(3-chloro-2-fluorobenzyl)-1-((1R)-1-(hydroxymethyl)-2-methoxyethyl)-4-oxo-1,4-dihydroquinoline-3-carboxylic acid]", "IC50": 13}, {"smiles": "CC(C)[C@@H](CO)n1cc(C(=O)O)c(=O)c2cc(Cc3cccc(Cl)c3F)c(OC3CCN(C)CC3)cc21", "note": "[Example 4-14, 6-(3-chloro-2-fluorobenzyl)-1-((1S)-1-(hydroxymethyl)-2-methylpropyl)-7-(1-methylpiperidin-4-yloxy)-4-oxo-1,4-dihydroquinoline-3-carboxylic acid]", "IC50": 5.4}]}, {"test_system": "not given", "assay": "not given", "settings": "not given", "units": {"melting point": "°C"}, "values": [{"smiles": "O=C(O)c1cn(CCO)c2ccc(Cc3cccc(Cl)c3Cl)cc2c1=O", "melting point": "247 to 249"}]}]}
